Experimental data published in patent EP4644375A1, “SUBSTITUTED HYDROQUINOLINES FOR THE TREATMENT OF GLIOBLASTOMA MULTIFORME” (Molius Saglik Teknolojileri Anonim Sirketi, priority 2024, dated 2025).

Experiments:
[1] = tested on: U138-MG human glioma cell; experiment: Cell proliferation analysis (MTT); assay type: cell-based; conditions: 10 µM, two days, MTT; for activity at 10 µM / inhibition at 10 µM: Homo sapiens, 48 h
[2] = tested on: U87-MG human glioma cell; experiment: Cell proliferation analysis (MTT); assay type: cell-based; conditions: for activity at 10 µM / inhibition at 10 µM: Homo sapiens, U-87 MG, 48 h; for activity at 10 µM / inhibition at 10 µM / Cell Proliferation (%): two days, MTT, 10 µM

Row | SMILES | activity at 10 µM [1] | inhibition at 10 µM [1] | activity at 10 µM [2] | inhibition at 10 µM [2] | Cell Proliferation (%) [1] | Cell Proliferation (%) [2] | top 5 target compounds whose treatment resulted in the lowest proliferation ([2]; ranking)
1 | COc1ccc(C=NNC(=O)COc2ccc3c(c2)CCC(=O)N3)c(OC)c1 [TR-G022, N'-(2,4-dimethoxybenzylidene)-2-((2-oxo-1,2,3,4-tetrahydroquinolin-6-yl)oxy)acetohydrazide] | 75% | 25% | 98% | 2% | – | – | –
2 | O=C1CCc2cc(OC(=O)Nc3ccc([N+](=O)[O-])cc3)ccc2N1 [TR-G133, 2-oxo-1,2,3,4-tetrahydroquinolin-6-yl (4-nitrophenyl)carbamate] | 77% | 23% | 93% | 7% | – | – | –
3 | CCOC(=O)CN1C(=O)CCc2cc(OCCCCc3nnnn3C3CCCCC3)ccc21 [TR-G102, ethyl 2-(6-(4-(1-cyclohexyl-1H-tetrazol-5-yl)butoxy)-2-oxo-3,4-dihydroquinolin-1(2H)-yl)acetate] | 49% | 51% | 66% | 35% | – | – | –
4 | O=C1CCc2cc(OCCCCc3nnnn3C3CCCCC3)ccc2N1Cc1ccc(F)cc1 [TR-G112, 6-(4-(1-cyclohexyl-1H-tetrazol-5-yl)butoxy)-1-(4-fluorobenzyl)-3,4-dihydroquinolin-2(1H)-one] | 43% | 58% | 60% | 41% | – | – | –
5 | O=C1CCc2cc(OCC(=O)Oc3ccccc3)ccc2N1 [TR-G004, phenyl 2-((2-oxo-1,2,3,4-tetrahydroquinolin-6-yl)oxy)acetate] | 88% | 12% | 73% | 27% | – | – | –
6 | Cc1ccccc1NC(=O)Oc1ccc2c(c1)CCC(=O)N2 [TR-G134, 2-oxo-1,2,3,4-tetrahydroquinolin-6-yl-o-tolylcarbamate] | – | 27% | – | 30% | 73% | 70% | –
7 | O=C1CCc2cc(OC(=O)Nc3ccccc3Cl)ccc2N1 [TR-G096, 2-oxo-1,2,3,4-tetrahydroquinolin-6-yl (2-chlorophenyl)carbamate] | 70% | 30% | 75% | 25% | – | – | –
8 | O=C1CCc2cc(OCc3cn(CCCN4C(=O)c5ccccc5C4=O)nn3)ccc2N1 [TR-G117, 2-(3-(4-(((2-oxo-1,2,3,4-tetrahydroquinolin-6-yl)oxy)methyl)-1H-1,2,3-triazol-1-yl)propyl)isoindoline-1,3-dione] | 106% | -6% | 96% | 4% | – | – | –
9 | O=C(COc1ccc2c(c1)CCC(=O)N2)Nc1ccc(N2CCOCC2)cc1 [TR-G120, N-(4-morpholinophenyl)-2-((2-oxo-1,2,3,4-tetrahydroquinolin-6-yl)oxy)acetamide] | 67% | 34% | 68% | 33% | – | – | –
10 | COc1cc(NC(=O)COc2ccc3c(c2)CCC(=O)N3)cc(OC)c1OC [TR-G094, 2-((2-oxo-1,2,3,4-tetrahydroquinolin-6-yl)oxy)-N-(3,4,5-trimethoxyphenyl)acetamide] | 80% | 20% | 78% | 22% | – | – | –
11 | Cc1ccc(CN2C(=O)CCc3cc(OCCCCc4nnnn4C4CCCCC4)ccc32)cc1 [TR-G104, 6-(4-(1-cyclohexyl-1H-tetrazol-5-yl)butoxy)-1-(4-methylbenzyl)-3,4-dihydroquinolin-2(1H)-one] | 83% | 17% | 49% | 51% | – | – | –
12 | O=C1CCc2cc(OCc3cn(Cc4ccc(F)cc4)nn3)ccc2N1 [TR-G086, 6-((1-(4-fluorobenzyl)-1H-1,2,3-triazol-4-yl)methoxy)-3,4-dihydroquinolin-2(1H)-one] | 79% | 21% | 79% | 21% | – | – | –
13 | O=C1CCc2cc(OCCCCc3nnnn3C3CCCCC3)ccc2N1Cc1ccc(Cl)cc1 [TR-G111, 1-(4-chlorobenzyl)-6-(4-(1-cyclohexyl-1H-tetrazol-5-yl)butoxy)-3,4-dihydroquinolin-2(1H)-one] | – | 9% | – | 32% | 91% | 68% | –
14 | COc1ccc(S(=O)(=O)Oc2ccc3c(c2)CCC(=O)N3)cc1OC [TR-G085, 2-oxo-1,2,3,4-tetrahydroquinolin-6-yl 3,4-dimethoxybenzenesulfonate] | 71% | 29% | 53% | 47% | – | – | –
15 | C=CCCCOc1ccc2c(c1)CCC(=O)N2 [TR-G144, 6-(pent-4-en-i-yloxy)-3,4-dihydroquinolin-2(1H)-one] | 70% | 30% | 61% | 39% | – | – | –
16 | O=C(COc1ccc2c(c1)CCC(=O)N2)Nc1ccc(F)c(Cl)c1 [TR-G075, N-(3-chloro-4-fluorophenyl)-2-((2-oxo-1,2,3,4-tetrahydroquinolin-6-yl)oxy)acetamide] | 85% | 15% | 68% | 32% | – | – | –
17 | CCOC(=O)Cn1cc(COc2ccc3c(c2)CCC(=O)N3)nn1 [TR-G033, Ethyl 2-(4-(((2-oxo-1,2,3,4-tetrahydroquinolin-6-yl)oxy)methyl)-1H-1,2,3-triazol-1-yl)acetate] | 71% | 29% | 82% | 19% | – | – | –
18 | O=C1CCc2cc(OCC3CC(c4ccc(F)cc4)=NO3)ccc2N1 (centres unmarked) [TR-G051, 6-((3-(4-fluorophenyl)-4,5-dihydroisoxazol-5-yl)methoxy)-3,4-dihydroquinolin-2(1H)-one] | 67% | 33% | 79% | 21% | – | – | –
19 | CC(C)(C)c1ccc(COc2ccc3c(c2)CCC(=O)N3)cc1 [TR-G030, 6-((4-(tert-butyl)benzyl)oxy)-3,4-dihydroquinolin-2(1H)-one] | 63% | 38% | 53% | 47% | – | – | –
20 | O=C1CCc2cc(OC(=O)Nc3ccccc3C(F)(F)F)ccc2N1 [TR-G137, 2-oxo-1,2,3,4-tetrahydroquinolin-6-yl (2-(trifluoromethyl)phenyl)carbamate] | 60% | 40% | 73% | 27% | – | – | –
21 | CCCN1C(=O)CCc2cc(OCCCCc3nnnn3C3CCCCC3)ccc21 [TR-G105, 6-(4-(1-cyclohexyl-1H-tetrazol-5-yl)butoxy)-1-propyl-3,4-dihydroquinolin-2(1H)-one] | 73% | 28% | 48% | 52% | – | – | –
22 | Nc1ncc(/C=N/NC(=O)COc2ccc3c(c2)CCC(=O)N3)cn1 [TR-G076, (E)-N'-((2-aminopyrimidin-5-yl)methylene)-2-((2-oxo-1,2,3,4-tetrahydroquinolin-6-yl)oxy)acetohydrazide] | 92% | 8% | 97% | 3% | – | – | –
23 | O=C1CCc2cc(OS(=O)(=O)c3cccc(Cl)c3Cl)ccc2N1 [TR-G042, 2-oxo-1,2,3,4-tetrahydroquinolin-6-yl 2,3-dichlorobenzenesulfonate] | – | 17% | – | 31% | 83% | 70% | –
24 | C=Cc1ccc(CN2C(=O)CCc3cc(OCCCCc4nnnn4C4CCCCC4)ccc32)cc1 [TR-G107, 6-(4-(1-cyclohexyl-1H-tetrazol-5-yl)butoxy)-1-(4-vinylbenzyl)-3,4-dihydroquinolin-2(1H)-one] | 103% | -3% | 47% | 53% | – | – | top 5
25 | O=C1CCc2cc(OCCCCOC(=O)c3ccccc3)ccc2N1 [TR-G013, 4-((2-oxo-1,2,3,4-tetrahydroquinolin-6-yl)oxy)butyl benzoate] | 78% | 22% | 71% | 29% | – | – | –
26 | COc1ccc(C(=O)Oc2ccc3c(c2)CCC(=O)N3)cc1OC [TR-G008, 2-oxo-1,2,3,4-tetrahydroquinolin-6-yl 3,4-dimethoxybenzoate] | 65% | 35% | 63% | 37% | – | – | –
27 | CC(C)C/C=N/NC(=O)COc1ccc2c(c1)CCC(=O)N2 [TR-G003, (E)-N'-(3-methylbutylidene)-2-((2-oxo-1,2,3,4-tetrahydroquinolin-6-yl)oxy)acetohydrazide] | 84% | 16% | 79% | 21% | – | – | –
28 | O=C1CCc2cc(OC(=O)Nc3ccc(F)cc3)ccc2N1 [TR-G140, 2-oxo-1,2,3,4-tetrahydroquinolin-6-yl (4-fluorophenyl)carbamate] | 91% | 9% | 80% | 20% | – | – | –
